# Assay results: patent US6218398A, “Nocathiacin antibiotics” (Bristol-Myers Squibb Company, priority 1999, dated 2001)
# Tests used:
# [1] = test system: Staphylococcus aureus A15090; experiment: systemic Staph. aureus infection model in mice; assay type: in vivo, female ICR mice infected with Staphylococcus aureus; conditions: subcutaneous
# Experimental: Nocathiacin I was evaluated for antibiotic activity in vivo, in a systemic infection model using female ICR mice. The animals were infected IP with 6.5×10^6 CFU of an overnight culture of Staphylococcus aureus A15090 suspended in 7% mucin. Nocathiacin I was dissolved in a test formulation consisting of 10% DMSO, 5% Tween 80 and 85% water. The solution was administered subcutaneously at 100 mg/kg total dose (2×50 mg/kg doses at 1 and 4 hours post-infection). […] The PD50 of nocathiacin I was determined to be <6.25 mg/kg.
# [2] = test system: Enterococcus faecalis A20688; experiment: MIC by conventional serial broth dilution assay; assay type: cell-based
# [3] = test system: Salmonella enteritidis A9531; experiment: MIC by conventional serial broth dilution assay; assay type: cell-based; conditions: Salmonella enterica
# [4] = test system: Enterococcus avium A27456; experiment: MIC by conventional serial broth dilution assay; assay type: cell-based
# [5] = test system: Escherichia coli/AcrA::Kan A28901; experiment: MIC by conventional serial broth dilution assay; assay type: cell-based
# [6] = test system: Moraxella catarrhalis/β-lactamase positive A25409; experiment: MIC by conventional serial broth dilution assay; assay type: cell-based
# Escherichia coli A22292 = experiment: MIC by conventional serial broth dilution assay; assay type: cell-based
# [7] = test system: Staphylococcus aureus/QC/ATCC#29213 A24407; experiment: MIC by conventional serial broth dilution assay; assay type: cell-based; conditions: ATCC29213
# [8] = test system: Enterococcus faecalis A27519; experiment: MIC by conventional serial broth dilution assay; assay type: cell-based
# [9] = test system: Moraxella catarrhalis/β-lactamase positive A22344; experiment: MIC by conventional serial broth dilution assay; assay type: cell-based
# Escherichia coli A15119 = experiment: MIC by conventional serial broth dilution assay; assay type: cell-based
# [10] = test system: Haemophilus influenzae/β-lactamase negative A20191; experiment: MIC by conventional serial broth dilution assay; assay type: cell-based
# [11] = test system: Staphylococcus epidermidis A24548; experiment: MIC by conventional serial broth dilution assay; assay type: cell-based
# Bacillus subtilis A9506A = experiment: MIC by conventional serial broth dilution assay; assay type: cell-based
# [12] = test system: Haemophilus influenzae/β-lactamase negative A20183; experiment: MIC by conventional serial broth dilution assay; assay type: cell-based
# [13] = test system: Streptococcus pneumoniae/penicillin intermediate A27881; experiment: MIC by conventional serial broth dilution assay; assay type: cell-based
# [14] = test system: Streptococcus pneumoniae A9585; experiment: MIC by conventional serial broth dilution assay; assay type: cell-based
# [15] = test system: Staphylococcus aureus/homo methicillin resistant A27223; experiment: MIC by conventional serial broth dilution assay; assay type: cell-based
# Salmonella/RE A27208 = experiment: MIC by conventional serial broth dilution assay; assay type: cell-based
# [16] = test system: Enterococcus faecium A24885; experiment: MIC by conventional serial broth dilution assay; assay type: cell-based
# [17] = test system: Staphylococcus haemolyticus A27298; experiment: MIC by conventional serial broth dilution assay; assay type: cell-based
# [18] = test system: Streptococcus pyogenes A9604; experiment: MIC by conventional serial broth dilution assay; assay type: cell-based
# [19] = test system: Haemophilus influenzae/β-lactamase positive A21515; experiment: MIC by conventional serial broth dilution assay; assay type: cell-based
# Gram-positive bacteria = experiment: in vitro activity against Gram-positive bacteria; assay type: cell-based; conditions: e.g. multiple drug resistant Enterococcus faecium
# [20] = test system: Staphylococcus aureus/β-lactamase positive A15090; experiment: MIC by conventional serial broth dilution assay; assay type: cell-based
# [21] = test system: Staphylococcus aureus/hetero methicillin resistant A27218; experiment: MIC by conventional serial broth dilution assay; assay type: cell-based
# [22] = test system: Streptococcus pneumoniae/penicillin resistant A28272; experiment: MIC by conventional serial broth dilution assay; assay type: cell-based
# [23] = test system: Staphylococcus aureus A9537; experiment: MIC by conventional serial broth dilution assay; assay type: cell-based
# [24] = test system: Enterococcus faecium/thiostrepton resistant (10 ug/ml) SC15829; experiment: MIC by conventional serial broth dilution assay; assay type: cell-based
# Micrococcus luteus A9852 = experiment: MIC by conventional serial broth dilution assay; assay type: cell-based
# Salmonella/WT A27207 = experiment: MIC by conventional serial broth dilution assay; assay type: cell-based
smiles,measurement,setting,value
C=C(NC(=O)c1csc(-c2nc3c(cc2O)-c2nc(cs2)C(=O)NC(C(C)O)C(=O)NC(=C(C)OC)c2nc(cs2)C(=O)NC2c4nc(cs4)C(=O)NC(COC(=O)c4c5c6c(cccc6n4O)COC(=O)C(OC4CC(C)(O)C(N(C)C)C(C)O4)C2OC5)c2nc-3cs2)n1)C(N)=O (stereo not shown) [Nocathiacin I],ED50,"[1]; Staphylococcus aureus, A15090, sc, systemic infection model, female ICR mice, read-out: PD50",< 6.25 mg/kg
same,signs of toxicity,[1]; 100 mg/kg total dose (2×50 mg/kg at 1 and 4 hours post-infection),no signs of toxicity
same,animals survived the duration of the experiment,"[1]; 100 mg/kg total dose (2×50 mg/kg at 1 and 4 hours post-infection), IP infection 6.5×10^6 CFU",Nine out of nine
same,MIC,[2]; A20688,0.03 µg/mL
same,MIC,"[2]; A20688, + 50% calf serum",0.25 µg/mL
same,MIC,[3],> 128 µg/mL
same,MIC,[4],0.015 µg/mL
same,MIC,[5],> 128 µg/mL
same,MIC,[6],0.06 µg/mL
same,MIC,Escherichia coli A22292,> 128 µg/mL
same,MIC,[7],0.007 µg/mL
same,MIC,[8],0.03 µg/mL
same,MIC,[9],0.06 µg/mL
same,MIC,Escherichia coli A15119,> 128 µg/mL
same,MIC,[10],> 128 µg/mL
same,MIC,[11],0.003 µg/mL
same,MIC,Bacillus subtilis A9506A,0.001 µg/mL
same,MIC,[12],> 128 µg/mL
same,MIC,[13],0.001 µg/mL
same,MIC,[14],0.001 µg/mL
same,MIC,[15]; + 50% calf serum,0.001 µg/mL
same,MIC,[15]; homo methicillin resistant,0.003 µg/mL
same,MIC,Salmonella/RE A27208,> 128 µg/mL
same,MIC,[16],0.015 µg/mL
same,MIC,[17],0.03 µg/mL
same,MIC,[18],0.001 µg/mL
same,MIC,[19],> 128 µg/mL
same,inhibitory activity against Gram-positive bacteria,Gram-positive bacteria,inhibitory activity at the nanomolar level
same,MIC,[20]; + 50% calf serum,0.015 µg/mL
same,MIC,[20]; β-lactamase positive,0.007 µg/mL
same,MIC,[21]; + 50% calf serum,0.007 µg/mL
same,MIC,[21]; hetero methicillin resistant,0.003 µg/mL
same,MIC,[22],0.001 µg/mL
same,MIC,[23],0.001 µg/mL
same,MIC,[24],0.125 µg/mL
same,MIC,Micrococcus luteus A9852,0.003 µg/mL
same,MIC,Salmonella/WT A27207,> 128 µg/mL
